From patent publication US20140343143A1, “Use of highly concentrated compositions of selected n-3 fatty acids for the treatment of central nervous system disturbances” (priority 2004, published 2014) come the findings set out here.

Assay [1] deals with pentylenetetrazol-induced major motor seizures. The assay can be described thus: Pentylenetetrazol (100 mg/kg i.p.)-induced seizures in rats (Example 4). In kind it is in vivo, rat. On the procedure: At the end, all the groups were treated with 100 mg/kg i.p. of pentylenetetrazol, and the animals underwent the following control exams: 1) length of latency period to the first major motor seizures (tonic-clonic contractions of the limbs, trunk and head; falling; saliva and blood discharge from the mouth); 2) number of rats responding with major motor seizures (or protected from seizure); 3) mean duration of the major motor seizure (MMS); 4) number of rats presenting minor clonic contractions (MCC), such as a sudden flexion of the forelegs or extension of the rear legs; 5) number of rats who died within 20 minutes or 5 hours after pentylenetetrazol injection.

Assay [2] relates to seizures in study strain rats. Nature of the assay: Preliminary determination of the epileptogenic ED50 of pentylenetetrazol. The format is in vivo. The settings on record: Rattus norvegicus, ip, read-out: ED50 (dose effective on 50% of rats) of the epileptogenic agent, i.p., preliminary experiment.
The subject of assay [3] is amphetamine-induced hyperactivity and risk-taking behaviour. The assay can be described thus: Amphetamine-induced behavioural model of mania, open field test in rats. The note with it: sodium valproate 20 mg/kg i.p., short times, preliminary experiment.
Setting [4] is: daily i.p. 2 weeks: n-3 50 mg/kg, clonazepam 5 mg/kg, or same doses combined, then pentylenetetrazol 100 mg/kg i.p., mean ± SD.

For `O=C1CN=C(c2ccccc2Cl)c2cc([N+](=O)[O-])ccc2N1` [clonazepam], in assay [1] (setting [4]), the “Duration of seizures” value was determined as 25 ± 6 s and the “Latency to seizures” value came out at 203 ± 12 s. Moreover, the “Dead animals <20′” value in assay [1] (died within 20 minutes after pentylenetetrazol injection, n/10) was 2/10. Besides, in assay [1] (died within 5 hours after pentylenetetrazol injection, n/10), the “Dead animals <5 h” value is 4/10. Also, the “Rats with MMS (n/tot)” value in assay [1] (major motor seizures, same treatment, pentylenetetrazol 100 mg/kg i.p.) is listed as 1/10. In assay [1] (minor clonic contractions, same treatment, pentylenetetrazol 100 mg/kg i.p.), the “Rats with MCC (n/tot)” value is 3/10.
The ED50 is the midpoint of the dose-response relation. On to `C1CCc2nnnn2CC1` [pentylenetetrazol], for which, in assay [2], the ED50 was in the range of 70 to 75 mg/kg.
Turning to `CCCC(CCC)C(=O)[O-].[Na+]` [sodium valproate], in assay [3], the “effect of valproate alone at the dose used in the combination” value was “ineffective when taken alone”.
